A short description of data set [1]: Unbound fraction in human serum. In kind it is ADME, cell-free.
The target in data set [2] is T1, Nuclear receptor subfamily 1 group I member 2 (Homo sapiens, UniProt O75469).
T1 sequence (O75469 whole entry): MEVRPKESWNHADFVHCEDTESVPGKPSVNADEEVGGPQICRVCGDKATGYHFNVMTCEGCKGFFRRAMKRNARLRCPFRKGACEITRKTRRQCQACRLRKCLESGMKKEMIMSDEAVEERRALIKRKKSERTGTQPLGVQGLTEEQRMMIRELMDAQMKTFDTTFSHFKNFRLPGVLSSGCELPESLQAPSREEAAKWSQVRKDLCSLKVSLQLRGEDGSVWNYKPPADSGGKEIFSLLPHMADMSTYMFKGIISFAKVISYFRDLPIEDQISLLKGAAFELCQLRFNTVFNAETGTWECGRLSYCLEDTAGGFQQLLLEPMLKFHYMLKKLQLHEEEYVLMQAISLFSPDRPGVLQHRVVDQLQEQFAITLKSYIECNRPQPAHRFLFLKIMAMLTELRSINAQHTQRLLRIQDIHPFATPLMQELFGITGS
In words: Activity at PXR (unknown origin).

Data set [3] concerns the target T2, Nuclear receptor ROR-alpha (Homo sapiens, UniProt P35398).
T2 sequence (P35398 whole entry): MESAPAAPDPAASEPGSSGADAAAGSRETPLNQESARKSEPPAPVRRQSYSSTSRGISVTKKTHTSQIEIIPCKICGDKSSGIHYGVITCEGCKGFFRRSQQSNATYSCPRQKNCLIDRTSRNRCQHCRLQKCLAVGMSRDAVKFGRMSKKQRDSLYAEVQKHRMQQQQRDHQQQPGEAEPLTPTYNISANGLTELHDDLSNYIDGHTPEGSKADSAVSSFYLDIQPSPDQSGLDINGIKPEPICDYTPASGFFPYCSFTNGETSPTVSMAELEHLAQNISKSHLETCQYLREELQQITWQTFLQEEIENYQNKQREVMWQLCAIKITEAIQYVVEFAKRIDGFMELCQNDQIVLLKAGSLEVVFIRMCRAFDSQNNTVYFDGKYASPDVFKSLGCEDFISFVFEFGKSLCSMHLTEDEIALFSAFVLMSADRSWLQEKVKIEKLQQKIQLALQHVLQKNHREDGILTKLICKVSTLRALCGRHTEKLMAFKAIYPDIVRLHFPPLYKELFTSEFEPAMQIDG
Kind of data set: Activity at RORalpha (unknown origin).

In data set [4] the target is T3, Nuclear receptor ROR-beta (Homo sapiens, UniProt Q92753).
T3 sequence (Q92753 whole entry): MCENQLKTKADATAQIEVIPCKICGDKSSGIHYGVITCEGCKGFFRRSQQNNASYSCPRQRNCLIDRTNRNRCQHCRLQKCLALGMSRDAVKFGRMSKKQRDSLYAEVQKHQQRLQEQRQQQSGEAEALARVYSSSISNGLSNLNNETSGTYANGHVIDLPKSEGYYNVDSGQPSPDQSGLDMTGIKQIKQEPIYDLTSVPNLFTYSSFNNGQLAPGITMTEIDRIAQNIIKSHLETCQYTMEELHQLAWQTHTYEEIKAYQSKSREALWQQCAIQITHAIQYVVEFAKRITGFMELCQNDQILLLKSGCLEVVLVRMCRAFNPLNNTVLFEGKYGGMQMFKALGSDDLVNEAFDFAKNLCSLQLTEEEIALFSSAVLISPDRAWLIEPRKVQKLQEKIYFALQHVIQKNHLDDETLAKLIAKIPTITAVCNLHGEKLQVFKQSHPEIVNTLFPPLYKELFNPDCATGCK
Kind of data set: Activity at RORbeta (unknown origin).

Data set [5] addresses T4, Oxysterols receptor LXR-alpha (Homo sapiens, UniProt Q13133).
T4 sequence (Q13133 whole entry): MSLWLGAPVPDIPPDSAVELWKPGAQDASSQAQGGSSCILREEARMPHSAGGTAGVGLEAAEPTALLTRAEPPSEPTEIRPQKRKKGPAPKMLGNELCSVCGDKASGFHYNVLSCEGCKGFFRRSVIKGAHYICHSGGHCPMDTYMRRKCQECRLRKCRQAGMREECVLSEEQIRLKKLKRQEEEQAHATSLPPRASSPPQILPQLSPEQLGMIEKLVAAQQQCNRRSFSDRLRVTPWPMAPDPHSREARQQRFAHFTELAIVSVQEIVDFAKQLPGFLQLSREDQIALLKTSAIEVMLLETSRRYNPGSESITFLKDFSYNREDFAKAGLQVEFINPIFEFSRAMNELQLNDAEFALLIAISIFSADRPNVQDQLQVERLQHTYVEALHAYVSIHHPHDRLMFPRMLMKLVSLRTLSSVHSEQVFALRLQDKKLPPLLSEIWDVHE
In words: Activity at LXRalpha (unknown origin).

Data set [6] deals with T5, Oxysterols receptor LXR-beta (Homo sapiens, UniProt P55055).
T5 sequence (P55055 whole entry): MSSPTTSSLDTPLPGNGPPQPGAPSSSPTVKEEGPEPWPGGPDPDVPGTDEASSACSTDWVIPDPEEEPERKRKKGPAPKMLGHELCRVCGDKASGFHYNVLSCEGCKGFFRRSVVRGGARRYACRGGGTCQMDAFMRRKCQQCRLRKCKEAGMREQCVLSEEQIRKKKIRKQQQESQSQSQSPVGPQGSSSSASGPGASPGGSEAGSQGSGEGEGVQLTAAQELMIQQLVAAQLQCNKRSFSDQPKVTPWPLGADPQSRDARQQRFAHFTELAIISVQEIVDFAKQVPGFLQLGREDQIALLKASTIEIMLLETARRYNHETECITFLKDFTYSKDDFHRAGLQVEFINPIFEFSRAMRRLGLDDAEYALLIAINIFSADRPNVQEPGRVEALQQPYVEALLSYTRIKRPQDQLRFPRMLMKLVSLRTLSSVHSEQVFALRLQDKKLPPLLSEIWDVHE
Kind of data set: Activity at LXRbeta (unknown origin).

Data set [7] in a line: Half life in human liver microsomes. The class given is ADME, Microsome.
A short description of data set [8]: Half life in rat liver microsomes. In kind it is ADME, Microsome.
Data set [9] can be described thus: Half life in mouse liver microsomes. The class given is ADME, Microsome. Background: Microsomes from liver hold many membrane-bound enzymes, among them those of drug oxidation.

Usually fraction unbound stands for free concentration divided by total concentration. Higher therefore signals much free substance. The term IC50 denotes the concentration that inhibits the measured activity by half. A word on the half-life: it is the time needed for the level to fall by half in the phase considered.

Some results are limits rather than exact numbers.

Consider `O=C(N1CC[C@@]2(S(=O)(=O)c3ccc(F)cc3)c3ccc(C(F)(C(F)(F)F)C(F)(F)F)cc3NC[C@@H]12)C1(O)CCS(=O)(=O)CC1`, for which the fraction unbound in data set [1] was 0.006. The IC50 in [2] is greater than 40 µM; in data set [3], greater than 10 µM; in data set [4], greater than 10 µM; in data set [5], greater than 10 µM; in data set [6] it was greater than 10 µM.

Consider `Cc1cccc(S(=O)(=O)[C@@]23CCN(C(=O)[C@H]4CC[C@H](C(=O)O)CC4)[C@@H]2CCc2cc(C(F)(C(F)(F)F)C(F)(F)F)ccc23)c1`, for which the half-life in [7] is greater than 2 h; in [8], 0.417 h; in [9], greater than 2 h. Moreover, the IC50 in data set [2] is greater than 40 µM; in [3], greater than 10 µM; in data set [4] it was greater than 10 µM; in data set [5], greater than 10 µM; in data set [6], greater than 10 µM.

Take `C[C@]1(C(=O)N2CC[C@@]3(S(=O)(=O)c4ccc(F)cc4)c4ccc(C(F)(C(F)(F)F)C(F)(F)F)cc4CC[C@@H]23)CC[C@H](C(=O)O)CC1`: the half-life was 1.82 h in [7], 1.78 h in data set [8] and 1.4 h in [9]. The IC50 is greater than 40 µM in [2]; greater than 10 µM in data set [3]; greater than 10 µM in [4]; greater than 10 µM in [5]; greater than 10 µM in data set [6].

`O=C(C1CCS(=O)(=O)CC1)N1CC[C@@]2(S(=O)(=O)c3ccc(F)cc3)c3ccc(C(F)(C(F)(F)F)C(F)(F)F)cc3CC[C@@H]12`: the figures for the half-life in data set [7], in [8] and in data set [9] were greater than 2 h, 1.1 h and greater than 2 h, respectively. Besides, the IC50 in [2] was greater than 40 µM; in data set [3], greater than 10 µM; in data set [4], greater than 10 µM; in [5], greater than 10 µM; in [6] it was greater than 10 µM.

Take `C[C@]1(C(=O)O)CC[C@H](C(=O)N2CC[C@@]3(S(=O)(=O)c4ccc(F)cc4)c4ccc(C(F)(C(F)(F)F)C(F)(F)F)cc4CC[C@@H]23)CC1`: the figures for the half-life in [7], in data set [8] and in [9] were greater than 2 h, 1.73 h and greater than 2 h, respectively. Moreover, the IC50 is greater than 40 µM in data set [2]; greater than 10 µM in data set [3]; greater than 10 µM in data set [4]; greater than 10 µM in data set [5]; greater than 10 µM in data set [6].

Turning to `O=C(O)[C@H]1CC[C@H](C(=O)N2CC[C@@]3(S(=O)(=O)c4cccc(F)c4)c4ccc(C(F)(C(F)(F)F)C(F)(F)F)cc4CC[C@@H]23)CC1`, the values for the half-life in data set [7], in data set [8] and in data set [9] were 1.83 h, greater than 2 h and 1.65 h, respectively. Besides, the IC50 in data set [2] was greater than 40 µM; in [3], greater than 10 µM; in data set [4], greater than 10 µM; in [5], greater than 10 µM; in [6] it was greater than 10 µM.

For `Cc1ccc(S(=O)(=O)[C@@]23CCN(C(=O)[C@H]4CC[C@H](C(=O)O)CC4)[C@@H]2CCc2cc(C(F)(C(F)(F)F)C(F)(F)F)ccc23)cc1`, the half-life in data set [7] is 1.37 h; in data set [8], 1.02 h; in data set [9], greater than 2 h. Also, the IC50 in [2] is greater than 40 µM; in data set [3], greater than 10 µM; in data set [4] it was greater than 10 µM; in data set [5] it was greater than 10 µM; in data set [6], greater than 10 µM.

As to `O=C(O)[C@H]1CC[C@H](C(=O)N2CC[C@@]3(S(=O)(=O)Cc4ccccc4)c4ccc(C(F)(C(F)(F)F)C(F)(F)F)cc4CC[C@@H]23)CC1`, the IC50 in data set [2] was greater than 40 µM; in [3], greater than 10 µM; in data set [4], greater than 10 µM; in [5], greater than 10 µM; in [6] it was greater than 10 µM.

For `O=C(O)[C@H]1CC[C@@H](C(=O)N2CC[C@@]3(S(=O)(=O)c4ccc(F)cc4)c4ccc(C(F)(C(F)(F)F)C(F)(F)F)cc4CC[C@@H]23)CC1`, the IC50 in [2] was greater than 40 µM; in [3], greater than 10 µM; in data set [4], greater than 10 µM; in data set [5], greater than 10 µM; in data set [6], greater than 10 µM.

Regarding `CC(=O)N1CCC(C(=O)N2CC[C@@]3(S(=O)(=O)c4ccc(F)cc4)c4ccc(C(F)(C(F)(F)F)C(F)(F)F)cc4CC[C@@H]23)CC1`, the figures for the half-life in [7], in data set [8] and in data set [9] were 0.35 h, 0.817 h and 0.85 h, respectively. For the same molecule, the IC50 in data set [2] was greater than 40 µM; in data set [3] it was greater than 10 µM; in [4], greater than 10 µM; in data set [5] it was greater than 10 µM; in [6], greater than 10 µM.

Turning to `O=C(O)[C@H]1CC[C@H](C(=O)N2CC[C@@]3(S(=O)(=O)c4cccc(Cl)c4)c4ccc(C(F)(C(F)(F)F)C(F)(F)F)cc4CC[C@@H]23)CC1`, the half-life in data set [7], in data set [8] and in data set [9] was greater than 2 h in each case. Moreover, the IC50 in data set [2] is greater than 40 µM; in data set [3], greater than 10 µM; in data set [4] it was greater than 10 µM; in data set [5] it was greater than 10 µM; in data set [6], greater than 10 µM.

Take `O=C(O)[C@H]1CC[C@H](C(=O)N2CC[C@@]3(S(=O)(=O)c4ccc(Cl)cc4)c4ccc(C(F)(C(F)(F)F)C(F)(F)F)cc4CC[C@@H]23)CC1`: the half-life in data set [7], in [8] and in [9] was greater than 2 h in each case. In addition, the IC50 was greater than 40 µM in data set [2]; greater than 10 µM in [3]; greater than 10 µM in [4]; greater than 10 µM in data set [5]; greater than 10 µM in data set [6].

For `O=C(N1CC[C@@]2(S(=O)(=O)c3ccc(F)cc3)c3ccc(C(F)(C(F)(F)F)C(F)(F)F)cc3OC[C@@H]12)C1(O)CCS(=O)(=O)CC1`, the half-life in [7] is greater than 2 h; in data set [8], 1.58 h; in [9], greater than 2 h. Also, the IC50 in data set [2] is greater than 40 µM; in data set [3] it was greater than 10 µM; in data set [4], greater than 10 µM; in data set [5] it was greater than 10 µM; in [6], greater than 10 µM.

Consider `O=C(O)C12CC(C(=O)N3CC[C@@]4(S(=O)(=O)c5ccc(F)cc5)c5ccc(C(F)(C(F)(F)F)C(F)(F)F)cc5CC[C@@H]34)(C1)C2`, for which the IC50 in data set [2] is greater than 40 µM; in data set [3], greater than 10 µM; in data set [4], greater than 10 µM; in data set [5], greater than 10 µM; in data set [6] it was greater than 10 µM.
